Key:
[1] = tested on: Class I PI3 kinase isoforms; settings: cited from earlier work
P110β = P110β (Homo sapiens, UniProt P42338); settings: cited from earlier work
[2] = tested on: mouse model of rheumatoid arthritis; settings: in vivo; cited from earlier work
[3] = tested on: model of systemic lupus erythematosis; settings: in vivo; cited from earlier work
p110δ = p110δ (Homo sapiens, UniProt O00329); settings: cited from earlier work
murine model of asthma = settings: ovalbumin-induced airway inflammation; cited from earlier work
protein kinases = settings: cited from earlier work
PI3k δ = target: T1, PI3k δ (Homo sapiens, UniProt O00329); assay: biochemical; type: biochemical; settings: read-out: PI3k δ Ki
T1 construct: Full length p110 subunits of PI3k α, β and δ; polyHis (N); made in house; host or cells: Sf9 insect cells (baculovirus)
Protocol: Full length p110 subunits of PI3k α, β and δ, N-terminally labeled with polyHis tag, were coexpressed with p85 with Baculo virus expression vectors in sf9 insect cells. P110/p85 heterodimers were purified by sequential Ni-NTA, Q-HP, Superdex-100 chromatography. Purified α, β and δ isozymes were stored at −20° C. in 20 mM Tris, pH 8, 0.2M NaCl, 50% glycerol, 5 mM DTT, 2 mM Na cholate. […] The γ isozyme was purified by sequential Ni-NTA, Superdex-200, Q-HP chromatography. The γ isozyme was stored frozen at −80° C. in NaH2PO4, pH 8, 0.2M NaCl, 1% ethylene glycol, 2 mM β-mercaptoethanol.
Phospatidyl inositol phosphoacceptor, Ptdlns(4,5)P2 P4508, was from Echelon Biosciences. […] Test compounds were dissolved in dimethyl sulfoxide and diluted with three-fold serial dilutions. The compound in DMSO (1 μL) was added per test well, and the inhibition relative to reactions containing no compound, with and without enzyme was determined. After assay incubation at rt, the reaction was stopped and residual ATP determined by addition of an equal volume of a commercial ATP bioluminescence kit (Perkin Elmer EasyLite) according to the manufacturer's instructions, and detected using a AnalystGT luminometer.

T1 sequence (O00329 whole entry): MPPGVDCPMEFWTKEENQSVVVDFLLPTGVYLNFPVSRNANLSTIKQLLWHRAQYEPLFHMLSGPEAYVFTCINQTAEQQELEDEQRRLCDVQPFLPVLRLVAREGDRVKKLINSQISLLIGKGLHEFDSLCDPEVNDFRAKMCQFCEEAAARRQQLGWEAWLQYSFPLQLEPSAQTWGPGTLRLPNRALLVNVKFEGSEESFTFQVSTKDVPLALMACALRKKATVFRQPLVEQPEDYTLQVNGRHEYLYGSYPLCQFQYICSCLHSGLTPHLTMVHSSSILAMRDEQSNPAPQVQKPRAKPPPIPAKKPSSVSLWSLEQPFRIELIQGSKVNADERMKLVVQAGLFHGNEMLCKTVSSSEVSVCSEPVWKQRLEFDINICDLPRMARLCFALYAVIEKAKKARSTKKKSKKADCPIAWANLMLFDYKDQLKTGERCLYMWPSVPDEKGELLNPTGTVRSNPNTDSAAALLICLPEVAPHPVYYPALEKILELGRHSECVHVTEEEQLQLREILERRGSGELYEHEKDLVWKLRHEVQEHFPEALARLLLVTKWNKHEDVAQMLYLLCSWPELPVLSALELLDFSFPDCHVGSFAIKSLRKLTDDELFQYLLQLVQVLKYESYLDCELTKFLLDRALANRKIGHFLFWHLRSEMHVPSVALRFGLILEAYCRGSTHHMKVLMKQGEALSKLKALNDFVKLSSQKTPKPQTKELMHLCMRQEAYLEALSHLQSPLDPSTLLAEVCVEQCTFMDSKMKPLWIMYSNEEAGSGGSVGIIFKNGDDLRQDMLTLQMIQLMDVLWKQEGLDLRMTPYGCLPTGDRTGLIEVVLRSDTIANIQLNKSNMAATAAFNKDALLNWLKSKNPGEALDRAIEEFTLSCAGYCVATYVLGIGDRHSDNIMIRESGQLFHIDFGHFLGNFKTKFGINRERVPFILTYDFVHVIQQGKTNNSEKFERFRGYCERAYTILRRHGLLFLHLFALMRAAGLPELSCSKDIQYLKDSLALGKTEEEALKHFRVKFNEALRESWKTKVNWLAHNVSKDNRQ
T1 sequence (P27986 whole entry partner): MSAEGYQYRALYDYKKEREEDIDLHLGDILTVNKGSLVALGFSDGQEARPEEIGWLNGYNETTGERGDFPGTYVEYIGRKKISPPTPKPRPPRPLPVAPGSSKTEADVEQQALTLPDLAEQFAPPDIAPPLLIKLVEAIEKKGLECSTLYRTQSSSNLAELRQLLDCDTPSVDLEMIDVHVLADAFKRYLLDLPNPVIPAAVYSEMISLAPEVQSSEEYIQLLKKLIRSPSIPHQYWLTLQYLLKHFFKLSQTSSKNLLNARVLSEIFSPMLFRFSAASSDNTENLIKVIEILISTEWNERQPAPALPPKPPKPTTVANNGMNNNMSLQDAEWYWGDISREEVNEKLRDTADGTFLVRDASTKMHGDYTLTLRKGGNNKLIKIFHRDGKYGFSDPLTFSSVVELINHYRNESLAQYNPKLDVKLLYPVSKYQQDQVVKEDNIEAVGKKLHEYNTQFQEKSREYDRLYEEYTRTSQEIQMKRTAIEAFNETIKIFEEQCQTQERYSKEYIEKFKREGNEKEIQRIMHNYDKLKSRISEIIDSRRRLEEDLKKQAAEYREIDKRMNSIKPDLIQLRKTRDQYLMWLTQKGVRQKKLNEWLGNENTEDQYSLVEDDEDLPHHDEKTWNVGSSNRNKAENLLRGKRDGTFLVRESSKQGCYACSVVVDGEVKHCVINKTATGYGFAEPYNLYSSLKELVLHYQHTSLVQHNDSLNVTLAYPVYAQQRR
Chain of p110δ (O00329 whole entry): as the sequence (O00329 whole entry) above
Chain of p110δ (P27986 whole entry partner): as the sequence (P27986 whole entry partner) above
Chain of P110β (P42338 whole entry): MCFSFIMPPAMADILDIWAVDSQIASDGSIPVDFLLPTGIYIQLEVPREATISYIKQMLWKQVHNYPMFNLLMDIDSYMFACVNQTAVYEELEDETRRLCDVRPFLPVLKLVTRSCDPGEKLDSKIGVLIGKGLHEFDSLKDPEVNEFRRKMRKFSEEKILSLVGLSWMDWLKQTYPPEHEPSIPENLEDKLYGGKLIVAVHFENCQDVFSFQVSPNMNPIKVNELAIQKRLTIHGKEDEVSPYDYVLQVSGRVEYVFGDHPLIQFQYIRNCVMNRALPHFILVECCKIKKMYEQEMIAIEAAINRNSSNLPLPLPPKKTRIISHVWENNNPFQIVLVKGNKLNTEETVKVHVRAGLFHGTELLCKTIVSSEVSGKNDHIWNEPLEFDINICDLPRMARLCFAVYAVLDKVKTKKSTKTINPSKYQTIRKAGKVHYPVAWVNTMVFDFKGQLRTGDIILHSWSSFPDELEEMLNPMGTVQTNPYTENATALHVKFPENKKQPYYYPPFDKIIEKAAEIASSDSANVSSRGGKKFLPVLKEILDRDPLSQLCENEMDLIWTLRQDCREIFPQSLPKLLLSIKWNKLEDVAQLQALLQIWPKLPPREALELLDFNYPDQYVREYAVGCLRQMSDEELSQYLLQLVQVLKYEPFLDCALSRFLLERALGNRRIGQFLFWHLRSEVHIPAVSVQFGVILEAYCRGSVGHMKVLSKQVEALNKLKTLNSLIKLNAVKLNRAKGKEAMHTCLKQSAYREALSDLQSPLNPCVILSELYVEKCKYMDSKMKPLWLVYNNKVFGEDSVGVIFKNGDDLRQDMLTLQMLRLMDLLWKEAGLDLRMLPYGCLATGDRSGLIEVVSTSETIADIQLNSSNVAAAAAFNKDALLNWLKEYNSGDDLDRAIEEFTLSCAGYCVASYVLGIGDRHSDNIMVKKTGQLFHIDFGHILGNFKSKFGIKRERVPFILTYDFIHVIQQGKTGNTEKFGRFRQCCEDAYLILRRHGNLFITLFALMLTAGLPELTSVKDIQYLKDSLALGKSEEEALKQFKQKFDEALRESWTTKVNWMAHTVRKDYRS
Chain of P110β (P27986 whole entry partner): as the sequence (P27986 whole entry partner) above

SMILES	Ki (PI3k δ)	further results
Cc1cc(C(C)Nc2ccccc2)c2nc(N3CCOCC3)cc(=O)n2c1 (stereo not drawn) [TGX-221]	–	selectivity over delta ([1]; beta over delta): 14 fold; selectivity over gamma and alpha ([1]; beta over gamma and alpha): more than 500 fold; potency on beta (P110β): 7 nM
O=C1NC(=O)/C(=C\c2ccc3nccnc3c2)S1 [AS 605240]	–	efficacy in a mouse model of rheumatoid arthritis [2]: efficacious; onset of disease in a model of systemic lupus erythematosis [3]: delay onset of disease
Cc1ccccc1-n1c(Cn2cnc3c(N)ncnc32)nc2cccc(C)c2c1=O [IC87114]	–	inhibition of p110δ (p110δ): high nanomolar range (triple digit); inflammation and disease in a murine model of asthma (murine model of asthma): significantly ameliorate inflammation and disease; activity against any protein kinases tested (protein kinases): no activity
C[C@H](Nc1ncnc(N)c1C#N)c1nc2ccccn2c1-c1ccc(Cl)cc1 [4-amino-6-(((1S)-1-(3-(4-chlorophenyl)imidazo[1,2-a]pyridin-2-yl)ethyl)amino)-5-pyrimidinecarbonitrile]	74 nM	–
C[C@H](Nc1ncnc(N)c1C#N)c1nc2cccc(C(=O)NC3CCCC3)c2n1C1CC1 [2-((1S)-1-((6-amino-5-cyano-4-pyrimidinyl)amino)ethyl)-N-cyclopentyl-1-cyclopropyl-1H-benzimidazole-7-carboxamide]	18.4 nM	–
CNC(=O)c1cccc2nc([C@H](C)Nc3ncnc(N)c3C#N)n(C3CC3)c12 [2-((1S)-1-((6-amino-5-cyano-4-pyrimidinyl)amino)ethyl)-1-cyclopropyl-N-methyl-1H-benzimidazole-7-carboxamide]	7.1 nM	–
C[C@@H](Nc1ncnc(N)c1C#N)c1nc2ccc(F)cc2n1-c1cccc(F)n1 [4-amino-6-(((1R)-1-(6-fluoro-1-(6-fluoro-2-pyridinyl)-1H-benzimidazol-2-yl)ethyl)amino)-5-pyrimidinecarbonitrile]	755 nM	–
C[C@H](Nc1ncnc(N)c1C#N)c1nc2cccc(C(=O)NC3CC3)n2c1-c1ccccc1 [2-((1S)-1-((6-amino-5-cyano-4-pyrimidinyl)amino)ethyl)-N-cyclopropyl-3-phenylimidazo[1,2-a]pyridine-5-carboxamide]	17.4 nM	–
C[C@H](Nc1ncnc(N)c1C#N)c1nc2cccc(C(=O)NC(C)(C)C)c2n1C1CC1 [2-((1S)-1-((6-amino-5-cyano-4-pyrimidinyl)amino)ethyl)-N-tert-butyl-1-cyclopropyl-1H-benzimidazole-7-carboxamide]	73.8 nM	–
C[C@H](Nc1ncnc(N)c1C#N)c1nc2c(F)cccc2n1-c1cncc(F)c1 [4-amino-6-(((1S)-1-(4-fluoro-1-(5-fluoro-3-pyridinyl)-1H-benzimidazol-2-yl)ethyl)amino)-5-pyrimidinecarbonitrile]	47 nM	–
C[C@H](Nc1ncnc2[nH]cnc12)c1nc2ccc(Cl)cc2n1-c1cc(F)cc(F)c1 [N-((1S)-1-(6-chloro-1-(3,5-difluorophenyl)-1H-benzimidazol-2-yl)ethyl)-9H-purin-6-amine]	8.4 nM	–
C[C@@H](Nc1ncnc(N)c1C#N)c1nc2ccc(F)cc2n1-c1cccc(-c2ccccn2)c1 [4-amino-6-(((1R)-1-(6-fluoro-1-(3-(2-pyridinyl)phenyl)-1H-benzimidazol-2-yl)ethyl)amino)-5-pyrimidinecarbonitrile]	132 nM	–
C[C@H](Nc1ncnc(N)c1C#N)c1nc2c(S(C)(=O)=O)cccc2n1C1CCCC1 [4-amino-6-(((1S)-1-(1-cyclopentyl-4-(methylsulfonyl)-1H-benzimidazol-2-yl)ethyl)amino)-5-pyrimidinecarbonitrile]	1440 nM	–
C[C@H](Nc1ncnc(N)c1C#N)c1nc2cccc(S(C)(=O)=O)c2n1C1CC1 [4-amino-6-(((1S)-1-(1-cyclopropyl-7-(methylsulfonyl)-1H-benzimidazol-2-yl)ethyl)amino)-5-pyrimidinecarbonitrile]	2.83 nM	–
CNC(=O)c1cccc2nc([C@H](C)Nc3ncnc(N)c3C#N)c(-c3cncc(F)c3)n12 [2-((1S)-1-((6-amino-5-cyano-4-pyrimidinyl)amino)ethyl)-3-(5-fluoro-3-pyridinyl)-N-methylimidazo[1,2-a]pyridine-5-carboxamide]	81.1 nM	–
CNC(=O)c1cccc2nc([C@H](C)Nc3ncnc(N)c3C#N)n(-c3cncc(F)c3)c12 [2-((1S)-1-((6-amino-5-cyano-4-pyrimidinyl)amino)ethyl)-1-(5-fluoro-3-pyridinyl)-N-methyl-1H-benzimidazole-7-carboxamide]	10.2 nM	–
